The source made the active and inactive calls. The rule behind the calls is not given here.

Sequence of Ubiquitin carboxyl-terminal hydrolase 1/WD repeat-containing protein 48 (O94782 whole entry): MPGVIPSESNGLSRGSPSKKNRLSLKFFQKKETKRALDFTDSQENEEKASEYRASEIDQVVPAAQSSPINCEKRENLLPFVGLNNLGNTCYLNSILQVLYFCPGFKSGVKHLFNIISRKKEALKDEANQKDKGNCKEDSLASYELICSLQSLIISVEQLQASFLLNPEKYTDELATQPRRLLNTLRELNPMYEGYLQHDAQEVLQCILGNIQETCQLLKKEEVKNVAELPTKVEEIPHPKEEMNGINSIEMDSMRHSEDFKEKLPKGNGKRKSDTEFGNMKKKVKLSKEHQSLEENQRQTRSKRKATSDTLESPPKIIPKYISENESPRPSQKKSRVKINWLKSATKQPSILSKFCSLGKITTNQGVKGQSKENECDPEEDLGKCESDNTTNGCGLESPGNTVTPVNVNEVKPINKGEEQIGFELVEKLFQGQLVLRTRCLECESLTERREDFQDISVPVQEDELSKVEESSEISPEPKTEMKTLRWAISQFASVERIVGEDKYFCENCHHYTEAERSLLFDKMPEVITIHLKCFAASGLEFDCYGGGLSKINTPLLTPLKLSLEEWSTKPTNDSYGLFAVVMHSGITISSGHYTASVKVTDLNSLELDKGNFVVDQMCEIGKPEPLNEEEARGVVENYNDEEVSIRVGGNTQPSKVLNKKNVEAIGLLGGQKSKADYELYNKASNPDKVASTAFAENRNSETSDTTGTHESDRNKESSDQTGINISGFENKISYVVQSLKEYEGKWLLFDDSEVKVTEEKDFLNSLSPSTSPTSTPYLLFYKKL
Sequence of Ubiquitin carboxyl-terminal hydrolase 1/WD repeat-containing protein 48 (Q8TAF3 whole entry, further chain): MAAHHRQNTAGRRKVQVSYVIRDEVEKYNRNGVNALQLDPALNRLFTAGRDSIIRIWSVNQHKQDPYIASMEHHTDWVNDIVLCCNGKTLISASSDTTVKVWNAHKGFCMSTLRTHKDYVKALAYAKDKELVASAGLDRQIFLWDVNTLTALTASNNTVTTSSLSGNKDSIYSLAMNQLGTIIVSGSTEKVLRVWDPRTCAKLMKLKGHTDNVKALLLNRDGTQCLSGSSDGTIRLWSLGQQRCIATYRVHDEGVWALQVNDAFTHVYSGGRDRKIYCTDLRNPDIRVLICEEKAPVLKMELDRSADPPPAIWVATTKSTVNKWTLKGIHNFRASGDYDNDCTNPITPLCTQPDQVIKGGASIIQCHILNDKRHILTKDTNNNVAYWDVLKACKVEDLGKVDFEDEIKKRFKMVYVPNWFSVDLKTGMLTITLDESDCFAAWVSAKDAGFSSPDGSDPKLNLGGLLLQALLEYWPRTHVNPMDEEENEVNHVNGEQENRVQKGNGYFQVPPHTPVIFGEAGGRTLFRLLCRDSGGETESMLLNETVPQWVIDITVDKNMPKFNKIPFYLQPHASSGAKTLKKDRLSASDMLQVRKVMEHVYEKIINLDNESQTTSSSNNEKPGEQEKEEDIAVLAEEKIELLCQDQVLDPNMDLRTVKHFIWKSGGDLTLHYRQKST

The first assay deals with T1, Ubiquitin carboxyl-terminal hydrolase 1/WD repeat-containing protein 48 (Homo sapiens) (UniProt O94782+Q8TAF3). The assay is described as follows: Inhibition of USP1-UAF1 complex (unknown origin) using Ub-7-amido-4-methylcoumarin as substrate at 10 uM incubated for 2 hrs by fluorescence based analysis relative to control. The assay is classed as protein-complex assay.
Settings: not given
As to `COc1ncnc(C2CC2)c1-c1ncc2ccc(=O)n(Cc3ccc(-n4cccc4)cc3)c2n1`, the inhibition was determined as 71.6%. Same read-out and setting: the same measure for `COc1ncnc(C2CC2)c1-c1ncc2ccc(=O)n(Cc3ccc(-n4ccnc4)cc3)c2n1`: 56.9%; for `CC(C)n1cc(C(F)(F)F)nc1-c1ccc(Cn2c(=O)ccc3cnc(-c4ccnn4C(C)C)nc32)cc1`: 56.6%.

Compound `COc1ncnc(C2CC2)c1-c1ncc2ccc(=O)n(Cc3ccc(-n4ccnn4)cc3)c2n1` gave an inhibition of 54.6%.

Consider `COc1ncccc1-c1ncc2ccc(=O)n(Cc3ccc(-c4nc(C(F)(F)F)cn4C(C)C)cc3)c2n1`, for which the inhibition came to 63.9%.

`COc1ncnc(C2CC2)c1-c1ncc2ccc(=O)n(Cc3ccc(-c4nc(C(F)(F)F)cn4C(C)C)c(C)c3)c2n1` registered an inhibition of 77.9%.

A further assay relates to NCI-H1299. Description: Inhibition of colony formation in human NCI-H1299 cells at 0.5 uM measured after 7 days by SRB staining based assay relative to control. The assay is classed as functional. Conditions: NCI-H1299, 168 h, time 7 day.
On to `COc1cccc(OC)c1-c1ncc2ccc(=O)n(Cc3ccc(-c4nc(C(F)(F)F)cn4C(C)C)cc3)c2n1`, for which the inhibition at 0.5 µM is 70%. Still for that read-out and setting: the same measure for `COc1ncnc(C2CC2)c1-c1ncc2ccc(=O)n(Cc3ccc(-n4nc(C(F)(F)F)cc4C)cc3)c2n1`: 70%.

A further assay has as its system MDA-MB-436. The assay is described as follows: Induction of cell cycle arrest in human MDA-MB-436 cells assessed as increase in cells at S phase at 1 uM incubated for 24 hrs by PI staining based flow cytometry analysis. The format is functional.
Settings: not given
Take `COc1cccc(OC)c1-c1ncc2ccc(=O)n(Cc3ccc(-c4nc(C(F)(F)F)cn4C(C)C)cc3)c2n1`: the outcome was Active.

Regarding `COc1ncnc(C2CC2)c1-c1ncc2cnn(Cc3ccc(-c4nc(C(F)(F)F)cn4C(C)C)cc3)c2n1`, the outcome was Active.

For the compound `COc1ncnc(C2CC2)c1-c1ncc2ccc(=O)n(Cc3ccc(-n4nc(C(F)(F)F)cc4C)cc3)c2n1`, the result was Active.

The next assay addresses Ubiquitin carboxyl-terminal hydrolase 1/WD repeat-containing protein 48 (Homo sapiens, UniProt O94782). The assay is described as follows: Inhibition of USP1-UAF1 complex (unknown origin) using Ub-7-amido-4-methylcoumarin as substrate incubated for 2 hrs by fluorescence based analysis. The assay is classed as protein-complex assay.
Settings: not given
The compound `COc1cc(-c2nc(C(F)(F)F)cn2C(C)C)ccc1Cn1c(=O)ccc2cnc(-c3c(OC)ncnc3C3CC3)nc21` had an IC50 of 319 nM.

For the compound `CC(C)n1cc(C(F)(F)F)nc1-c1ccc(Cn2c(=O)ccc3cnc(-c4ccccc4Cl)nc32)cc1`, the IC50 was determined as 729 nM.

`COc1ncnc(C2CC2)c1-c1ncc2ccc(=O)n(Cc3ccc(-c4cccc(C(F)(F)F)n4)cc3)c2n1`: the IC50 was 59.9 nM. On the same count and under the same terms, the same measure for `CC(C)n1cc(C(F)(F)F)nc1-c1ccc(Cn2c(=O)ccc3cnc(-c4c(Cl)cccc4Cl)nc32)cc1`: above 10000 nM.

Consider `COc1ncnc(C2CC2)c1-c1ncc2ccc(=O)n(Cc3ccc(-c4ccc(C(F)(F)F)cn4)cc3)c2n1`, for which the IC50 is above 10000 nM. The compound `CC(C)n1cc(C(F)(F)F)nc1-c1ccc(Cn2c(=O)ccc3cnc(-c4ccccc4OC(F)(F)F)nc32)cc1` returned an IC50 of 39.8 nM.

Compound `CC(C)n1cc(C(F)(F)F)nc1-c1ccc(Cn2c(=O)ccc3cnc(-c4c(Cl)cnn4C(C)C)nc32)cc1` came in with an IC50 above 10000 nM. Same read-out and setting: the same measure for `Cc1cnn(C)c1-c1ncc2ccc(=O)n(Cc3ccc(-c4nc(C(F)(F)F)cn4C(C)C)cc3)c2n1`: above 10000 nM. On the same count and under the same terms, the same measure for `COc1ncnc(C2CC2)c1-c1ncc2ccc(=O)n(Cc3ccc(-c4nc(C(F)(F)F)cn4C(C)C)c(F)c3)c2n1`: 22.8 nM. The same measure, in the same setting: the figure for `COc1cccc(F)c1-c1ncc2ccc(=O)n(Cc3ccc(-c4nc(C(F)(F)F)cn4C(C)C)cc3)c2n1` is 23.3 nM; for `Cc1ccccc1-c1ncc2ccc(=O)n(Cc3ccc(-c4nc(C(F)(F)F)cn4C(C)C)cc3)c2n1` it is 511 nM. As to `COc1ncnc(C2CC2)c1-c1ncc2ccc(=O)n(C(C)c3ccc(-c4nc(C(F)(F)F)cn4C(C)C)cc3)c2n1` (centres undefined), the IC50 amounted to 83.9 nM. On the same count and under the same terms, the same measure for `CC(C)c1ccccc1-c1ncc2ccc(=O)n(Cc3ccc(-c4nc(C(F)(F)F)cn4C(C)C)cc3)c2n1`: 33.9 nM; for `COc1cccc(OC)c1-c1ncc2ccc(=O)n(Cc3ccc(-c4nc(C(F)(F)F)cn4C(C)C)cc3)c2n1`: 18.8 nM. The same measure, in the same setting: the figure for `Cc1cnn(C(C)C)c1-c1ncc2ccc(=O)n(Cc3ccc(-c4nc(C(F)(F)F)cn4C(C)C)cc3)c2n1` is above 10000 nM. Take `CC(C)n1cc(C(F)(F)F)nc1-c1ccc(Cn2c(=O)ccc3cnc(-c4cccc5ncsc45)nc32)cc1`: the IC50 is above 10000 nM.

With `COc1ccccc1-c1ncc2ccc(=O)n(Cc3ccc(-c4nc(C(F)(F)F)cn4C(C)C)cc3)c2n1`, the IC50 was above 10000 nM. Still for that read-out and setting: the same measure for `COc1ncnc(C2CC2)c1-c1ncc2ccc(=O)n(Cc3c(F)cc(-c4nc(C(F)(F)F)cn4C(C)C)cc3F)c2n1`: 246 nM; for `CC(C)n1cc(C(F)(F)F)nc1-c1ccc(Cn2c(=O)ccc3cnc(-c4ccccc4C(F)(F)F)nc32)cc1`: 195 nM. The same measure, in the same setting: the figure for `CC(C)n1cc(C(F)(F)F)nc1-c1ccc(Cn2c(=O)ccc3cnc(-c4ccnn4C)nc32)cc1` is above 10000 nM. The compound `CC(C)n1cc(C(F)(F)F)nc1-c1ccc(Cn2c(=O)ccc3cnc(-c4ccn(C)n4)nc32)cc1` registered an IC50 above 10000 nM. Still for that read-out and setting: the same measure for `CC(C)n1cc(C(F)(F)F)nc1-c1ccc(Cn2c(=O)ccc3cnc(-c4c(F)cccc4Cl)nc32)cc1`: above 10000 nM; for `CC(C)n1cc(C(F)(F)F)nc1-c1ccc(Cn2c(=O)ccc3cnc(-c4cccc5cnn(C)c45)nc32)cc1`: above 10000 nM; for `COc1ncnc(C2CC2)c1-c1ncc2ccc(=O)n(Cc3ccc(-c4nc(C(F)(F)F)cn4CC4CC4)cc3)c2n1`: 11.2 nM. On the same count and under the same terms, the same measure for `CC(C)n1cc(C(F)(F)F)nc1-c1ccc(Cn2c(=O)ccc3cnc(-c4ccccc4F)nc32)cc1`: 835 nM.

In another assay the test system is Olaparib-resistant MDA-MB-436. The assay is described as follows: Inhibition of colony formation in human Olaparib-resistant MDA-MB-436 cell assessed as cell killing at 100 nM measured after 7 days by SRB staining based assay. The format is functional. The note with it: time 7.0 day.
As to `O=C(c1cc(Cc2n[nH]c(=O)c3ccccc23)ccc1F)N1CCN(C(=O)C2CC2)CC1`, the inhibition entry was “inactive”.

Another assay addresses T1, Ubiquitin carboxyl-terminal hydrolase 1/WD repeat-containing protein 48 (Homo sapiens). The note with it: NCI-H1299, dose 20-500 nM, time 24.0 hrs.
As to `COc1cccc(OC)c1-c1ncc2ccc(=O)n(Cc3ccc(-c4nc(C(F)(F)F)cn4C(C)C)cc3)c2n1`, the inhibition entry was “Dose-Dependent Effect”. Same read-out and setting: the entry for `COc1ncnc(C2CC2)c1-c1ncc2ccc(=O)n(Cc3ccc(-n4nc(C(F)(F)F)cc4C)cc3)c2n1` is “Dose-Dependent Effect”.

The record behind these values is ChEMBL document CHEMBL5579832, “Design, synthesis, and biological evaluation of pyrido[2,3-d]pyrimidin-7(8H)-one derivatives as potent USP1 inhibitors” (Eur J Med Chem, 2024).
